# Source: patent US9211349B2, “Molecular probes for multimodality imaging of anionic membrane surfaces” (Molecular Targeting Technologies, Inc., priority 2012, dated 2015)
# Test system: U87MG cells
# Assay: MTT assay, cytotoxicity of paclitaxel on U87MG cells
# Format: cell-based, human
# Method: A U87MG human glioblastoma cell line was obtained from the American Type Culture Collection (Manassas, Va., USA). U87MG glioma cells were grown in Dulbecco's modified medium (USC Cell Culture Core, Los Angeles, Calif., USA) supplemented with 10% fetal bovine serum at 37° C. in humidified atmosphere containing 5% CO2.
# The toxicity of paclitaxel to U87MG cells was determined by a colorimetric assay with 3-(4,5-dimethylthiazol-2-yl)-2,5-diphenyl tetrazolium bromide (MTT; Alfa Aesar). All studies were performed with triplicate samples and repeated at least three times. Briefly, cells were harvested by trypsinization, resuspended in Dulbecco's modified medium, and plated in a 96-well plate at 4,000 cells per well. After treatment with different doses of paclitaxel (ranging from 1 nM to 500 nM) for 16 hours, 22 μL of 0.5 mg/mL sterile filtered MTT was added to each well. The un-reacted dye was removed after 4 hours of incubation, and the insoluble formazan crystals were dissolved in 150 μL of DMSO. The absorbance at 490 nm was measured with a microplate reader (SpectraMax M2e, Molecular Devices, CA).
# FIG. 3 is a graph illustrating cytotoxicity of paclitaxel on U87MG cells determined by MTT assay. The best-fit 50% inhibitory concentration (IC50) values were calculated by fitting the data with nonlinear regression using Graph-Pad Prism 5.0 (Graph-Pad Software, San Diego, Calif.).
smiles,measurement,setting,value
CC(=O)O[C@H]1C(=O)[C@@]2(C)[C@H]([C@H](OC(=O)c3ccccc3)[C@]3(O)C[C@H](OC(=O)[C@H](O)[C@@H](NC(=O)c4ccccc4)c4ccccc4)C(C)=C1C3(C)C)[C@]1(OC(C)=O)CO[C@@H]1C[C@@H]2O [paclitaxel],sensitivity of U87MG cells to treatment,"1 nM to 500 nM, 16 hours",sensitive
same,IC50,"Homo sapiens, U-87 MG, after 16 hours of incubation",61.4 nM
